# Test results taken from patent US11246871B2, “Targeting adenosine A2A receptors for the treatment of levodopa-induced dyskinesias” (Northwestern University, priority 2016, dated 2022).
# Entries after “also recorded” stand apart in the source; their conditions may differ.
# Experiments:
# [1] = tested on: unilateral 6-OHDA lesioned mice (L-DOPA-induced dyskinesia); assay: Mouse unilateral 6-OHDA model and LID, abnormal involuntary movements (AIMs) scoring; format: in vivo
# Protocol: Mouse Unilateral 6-Hydroxydopamine (6-OHDA) Model and LID
# Mice were anaesthetized with an isoflurane precision vaporizer, placed in a stereotaxic frame, and a hole was drilled over the medial forebrain bundle. After exposing the skull, 3.5 mg ml^−1 free base 6-OHDA with 0.02% ascorbic acid was injected using a glass micropipette. Three weeks after surgery, the degree of damage to nigrostriatal DA neurons was assessed with a forelimb-use asymmetry test. Striatal sections from a subset of mice were stained with tyrosine hydroxylase to verify successful lesion. One day after the test, mice underwent behavioral testing for abnormal involuntary movements (AIMs) following L-DOPA treatment. Treatment with L-DOPA was given daily for 15 days at the doses of 3 mg kg^−1. Animals were randomly allocated to receive treatment with L-DOPA and vehicle, or L-DOPA and an A2a receptor antagonist.
# Data analysis was conducted with Igor Pro 6 and Clampfit 9. EPSP amplitude was calculated from 50 sweeps immediately before the start of induction and 20-30 min after the end of induction. Compiled data were expressed as mean±SEM. Statistical tests were performed using Excel and SigmaStat. […] Data were analyzed using parametric repeated measure two-way ANOVA followed by post hoc Bonferroni's test.
# [2] = tested on: iSPNs; assay: Patch-clamp recording of LTD induction in striatal slices from 6-OHDA lesioned animals; parameters: species or system Mouse; settings: dyskinetic ON-state after L-DOPA
# Protocol: (§1) Mice were deeply anesthetized intraperitoneally with a mixture of ketamine and xylazine. Parasagittal slices were cut in ice-cold aCSF. Whole-cell and perforated-patch recordings were performed in the dorsolateral striatum at 30-31° C. […] These protocols consisted of 20-60 trains of five bursts repeated at 0.1 Hz, with each burst composed of three APs preceded with three EPSPs at 50 Hz (pre-post timing pairing, +5 ms) or three APs followed by one EPSP (post-pre timing pairing, −10 ms). To ensure induction of consistent synaptic plasticity, postsynaptic neurons were depolarized to −70 mV from their typical resting membrane potentials (−85 mV) during their induction. GABAA was blocked by the bath application of gabazine (10 μM).
# (§2) Data analysis was conducted with Igor Pro 6 and Clampfit 9. EPSP amplitude was calculated from 50 sweeps immediately before the start of induction and 20-30 min after the end of induction. Compiled data were expressed as mean±SEM. Statistical tests were performed using Excel and SigmaStat. Nonparametric Mann-Whitney or Wilcoxon tests were used to assess the experiment results, using a probability threshold of 0.05. Statistical analyses for behavioral data were carried out using Prism 6. Data were analyzed using parametric repeated measure two-way ANOVA followed by post hoc Bonferroni's test.
# [3] = tested on: dSPNs; assay: Patch-clamp recording of LTP induction in striatal slices from 6-OHDA lesioned animals; parameters: species or system Mouse; settings: shortly after the last injection of L-DOPA (ON-state)
# Protocol: as §1, §2
Compound,"development of LID behaviors ([1]; systemic tozadenant 30 mg/kg 5 hours after L-DOPA doses, L-DOPA 3 mg/kg daily for 15 days, vs L-DOPA+vehicle, p<0.05)",LID scores induced by subsequent doses of L-DOPA (ON-state) ([1]; treated in the LID OFF-state),LTD induction in iSPNs [2],LTP induction in dSPNs [3]
COc1ccc(N2CCOCC2)c2sc(NC(=O)N3CCC(C)(O)CC3)nc12 [tozadenant],reduces the development of LID behaviors,significantly attenuates LID scores,–,–
"N[C@@H](Cc1ccc(O)c(O)c1)C(=O)O [L-DOPA, L-3,4-dihydroxyphenylalanine]",–,–,LTD was recovered; also recorded: LTD in iSPNs,LTP was recovered in dSPNs; also recorded: restores LTP in dSPNs
